The values below come from publication PMC3465485 (Antiviral research, 2012).

Like-named read-outs stand apart in the source and are kept apart here.

Series [1] has as its system influenza A/California/07/2009 (H1N1) virus.
A short description of another series: in vitro. As to conditions: dog.
The subject of series [2] is influenza A/California/07/2009 (H1N1) virus. Kind of series: microbe, parasite or virus in culture. As to conditions: H1N1, MDCK.
Series [3] deals with A/California/07/2009 neuraminidase (Influenza A virus (A/California/07/2009(H1N1)), UniProt C3W6G3). The series is classed as biochemical.
The conditions of series [4]: 100 mg/kg/day; no reference given; cited from earlier work.

The term EC50 denotes the concentration needed to bring the measured effect to its halfway point. Consider `NC12CC3CC(CC(C3)C1)C2` [Amantadine], for which the “antiviral activity in cell culture (in words)” value in series [1] is “no antiviral effect”. In the series “in vitro”, this compound yielded a CC50 of more than 100 µM. The concentration for a half-maximal effect (EC50) in series [2] is more than 100 µM.
In the case of `CCC(CC)O[C@@H]1C=C(C(=O)O)C[C@H](N)[C@H]1NC(C)=O` [Oseltamivir Carboxylate, Oseltamivir carboxylate], in series [3], the “neuraminidase inhibition (in words)” value is reported as “slightly less potent than the other two compounds”. The compound further came in with an EC50 in series [1] of 0.06 ± 0.1 µM. Further, in “in vitro”, the CC50 is more than 100 µM.
Consider `NC(=O)c1ncn([C@@H]2O[C@H](CO)[C@@H](O)[C@H]2O)n1` [Ribavirin], for which the “toxicity in mice (in words)” value in series [4] is “begins to cause toxicity”. The same compound gave a concentration for a half-maximal effect (EC50) in series [2] of 28 ± 11 µM.
With `CC(N)C12CC3CC(CC(C3)C1)C2` (stereo not drawn) [Rimantadine], in series [1], the “SI (CC50/EC50)” value came out at 0 and the “antiviral activity in cell culture (in words)” value is “no antiviral effect”. In addition, the CC50 in “in vitro” is 22 ± 1 µM. In addition, the concentration giving a half-maximal response (EC50) in series [2] is more than 22 µM.
In turn, `CC(=O)N[C@H]1[C@H]([C@H](O)[C@H](O)CO)OC(C(=O)O)=C[C@@H]1N=C(N)N` [Zanamivir] gave an EC50 in series [1] of 0.08 ± 0.07 µM. This compound also had a CC50 in the series “in vitro” of more than 100 µM.
One may read the IC50 as the concentration that gives 50% inhibition. In series [3], Peramivir gave a concentration for half-maximal inhibition (IC50) of 0.0029 ± 0.0006 µM. Also, in the series with MDCK cells, the CC50 is more than 100 µM. Moreover, in series [1], the EC50 was 0.04 ± 0.07 µM and the “SI (CC50/EC50)” value is listed as more than 2500.
